Measurements reported in patent US20110039721A1, “METHOD FOR PREDICTION ABOUT CARCINOGENICITY OF SUBSTANCE IN RODENT” (Chemicals Evaluation and Research Institute, priority 2007, published 2011).

How the values were obtained:
[1] = system: rodent; details: classification of the substance (C+/C−); cited from earlier work
[2] = system: liver; details: classification of the substance (Cr+/Cr−); cited from earlier work
[3] = system: mRNA expressed from the genes (A) to (D) in rat liver; assay: Behavior of genes (mRNA expression level, oligo-DNA microarray) in rat liver after 28-day oral administration; format: in vivo; details: mRNA vs vehicle control group; for Behavior of gene caused by administration of chemical substance, Gene No. 4846 / Behavior of gene caused by administration of chemical substance, Gene No. 2026 / Behavior of gene caused by administration of chemical substance, Gene No. 4218 / Behavior of gene caused by administration of chemical substance, Gene No. 6182 / Behavior of gene caused by administration of chemical substance, Gene No. 5600: gene group (A); for Behavior of gene caused by administration of chemical substance, Gene No. 4846: Unigene No. Rn.144554; for Behavior of gene caused by administration of chemical substance, Gene No. 2026 / Behavior of gene caused by administration of chemical substance, Gene No. 4218: Unigene No. Rn.167075; for Behavior of gene caused by administration of chemical substance, Gene No. 6182: Unigene No. Rn.5834; for Behavior of gene caused by administration of chemical substance, Gene No. 5600: Unigene No. Rn.9836; for Behavior of gene caused by administration of chemical substance, Gene No. 1494 / Behavior of gene caused by administration of chemical substance, Gene No. 2045 / Behavior of gene caused by administration of chemical substance, Gene No. 2203: gene group (B); for Behavior of gene caused by administration of chemical substance, Gene No. 1494: Unigene No. Rn.1430; for Behavior of gene caused by administration of chemical substance, Gene No. 2045: Unigene No. Rn.19329; for Behavior of gene caused by administration of chemical substance, Gene No. 2203: Unigene No. Rn.21240; for Behavior of gene caused by administration of chemical substance, Gene No. 533 / Behavior of gene caused by administration of chemical substance, Gene No. 725 / Behavior of gene caused by administration of chemical substance, Gene No. 1163 / Behavior of gene caused by administration of chemical substance, Gene No. 4973 / Behavior of gene caused by administration of chemical substance, Gene No. 4095 / Behavior of gene caused by administration of chemical substance, Gene No. 1334 / Behavior of gene caused by administration of chemical substance, Gene No. 6620 / Behavior of gene caused by administration of chemical substance, Gene No. 6303 / Behavior of gene caused by administration of chemical substance, Gene No. 5878 / Behavior of gene caused by administration of chemical substance, Gene No. 1131 / Behavior of gene caused by administration of chemical substance, Gene No. 1562 / Behavior of gene caused by administration of chemical substance, Gene No. 1741 / Behavior of gene caused by administration of chemical substance, Gene No. 893 / Behavior of gene caused by administration of chemical substance, Gene No. 6026 / Behavior of gene caused by administration of chemical substance, Gene No. 154 / Behavior of gene caused by administration of chemical substance, Gene No. 1993 / Behavior of gene caused by administration of chemical substance, Gene No. 813 / Behavior of gene caused by administration of chemical substance, Gene No. 2494 / Behavior of gene caused by administration of chemical substance, Gene No. 2546 / Behavior of gene caused by administration of chemical substance, Gene No. 3776 / Behavior of gene caused by administration of chemical substance, Gene No. 3929 / Behavior of gene caused by administration of chemical substance, Gene No. 1119 / Behavior of gene caused by administration of chemical substance, Gene No. 6742 / Behavior of gene caused by administration of chemical substance, Gene No. 5634: gene group (C); for Behavior of gene caused by administration of chemical substance, Gene No. 533: Unigene No. Rn.106184; for Behavior of gene caused by administration of chemical substance, Gene No. 725: Unigene No. Rn.108075; for Behavior of gene caused by administration of chemical substance, Gene No. 1163: Unigene No. Rn.11766; for Behavior of gene caused by administration of chemical substance, Gene No. 4973: Unigene No. Rn.118529; for Behavior of gene caused by administration of chemical substance, Gene No. 4095: Unigene No. Rn.119024; for Behavior of gene caused by administration of chemical substance, Gene No. 1334 / Behavior of gene caused by administration of chemical substance, Gene No. 6620: Unigene No. Rn.120914; for Behavior of gene caused by administration of chemical substance, Gene No. 6303: Unigene No. Rn.123063; for Behavior of gene caused by administration of chemical substance, Gene No. 5878: Unigene No. Rn.143213; for Behavior of gene caused by administration of chemical substance, Gene No. 1131: Unigene No. Rn.144946; for Behavior of gene caused by administration of chemical substance, Gene No. 1562: Unigene No. Rn.14744; for Behavior of gene caused by administration of chemical substance, Gene No. 1741: Unigene No. Rn.1647; for Behavior of gene caused by administration of chemical substance, Gene No. 893: Unigene No. Rn.164817; for Behavior of gene caused by administration of chemical substance, Gene No. 6026: Unigene No. Rn.167685; for Behavior of gene caused by administration of chemical substance, Gene No. 154: Unigene No. Rn.185941; for Behavior of gene caused by administration of chemical substance, Gene No. 1993: Unigene No. Rn.18728; for Behavior of gene caused by administration of chemical substance, Gene No. 813: Unigene No. Rn.201760; for Behavior of gene caused by administration of chemical substance, Gene No. 2494: Unigene No. Rn.23969; for Behavior of gene caused by administration of chemical substance, Gene No. 2546: Unigene No. Rn.24561; for Behavior of gene caused by administration of chemical substance, Gene No. 3776: Unigene No. Rn.43232; for Behavior of gene caused by administration of chemical substance, Gene No. 3929: Unigene No. Rn.4620; for Behavior of gene caused by administration of chemical substance, Gene No. 1119: Unigene No. Rn.9757; for Behavior of gene caused by administration of chemical substance, Gene No. 6742: Unigene No. Rn.9779; for Behavior of gene caused by administration of chemical substance, Gene No. 5634: Unigene No. Rn.9862; for Behavior of gene caused by administration of chemical substance, Gene No. 5726: gene group (D), Unigene No. Rn.9939
How it was run: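 Male F344 SPF rats, 5 weeks old, four per group, received carcinogens, non-carcinogens or solvent vehicle by oral gavage once daily for 28 days. Liver total RNA was then extracted. Changes of ≥1.5-fold or ≤1/1.5 versus vehicle control, in a consistent direction across carcinogens, counted as significant.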

[4] = classification of the substance (M+/M−); cited from earlier work

SMILES | Carcinogenicity [1] | Liver carcinogenicity [2] | Behavior of gene caused by administration of chemical substance, Gene No. 4846 [3] | Behavior of gene caused by administration of chemical substance, Gene No. 2026 [3] | Behavior of gene caused by administration of chemical substance, Gene No. 4218 [3] | Behavior of gene caused by administration of chemical substance, Gene No. 6182 [3] | Behavior of gene caused by administration of chemical substance, Gene No. 5600 [3] | Behavior of gene caused by administration of chemical substance, Gene No. 1494 [3] | Behavior of gene caused by administration of chemical substance, Gene No. 2045 [3] | Behavior of gene caused by administration of chemical substance, Gene No. 2203 [3] | Behavior of gene caused by administration of chemical substance, Gene No. 533 [3] | Behavior of gene caused by administration of chemical substance, Gene No. 725 [3] | Behavior of gene caused by administration of chemical substance, Gene No. 1163 [3] | Behavior of gene caused by administration of chemical substance, Gene No. 4973 [3] | Behavior of gene caused by administration of chemical substance, Gene No. 4095 [3] | Behavior of gene caused by administration of chemical substance, Gene No. 1334 [3] | Behavior of gene caused by administration of chemical substance, Gene No. 6620 [3] | Behavior of gene caused by administration of chemical substance, Gene No. 6303 [3] | Behavior of gene caused by administration of chemical substance, Gene No. 5878 [3] | Behavior of gene caused by administration of chemical substance, Gene No. 1131 [3] | other results
CCSCCC(N)C(=O)O (racemic) [TS070, D,L-Ethionine] | C+ | Cr+ | − | − | − | − | − | + | − | + | − | + | − | − | − | − | − | − | − | − | Behavior of gene caused by administration of chemical substance, Gene No. 1562 [3]: −; Behavior of gene caused by administration of chemical substance, Gene No. 1741 [3]: −; Behavior of gene caused by administration of chemical substance, Gene No. 893 [3]: −; Behavior of gene caused by administration of chemical substance, Gene No. 6026 [3]: −; Behavior of gene caused by administration of chemical substance, Gene No. 154 [3]: −; Behavior of gene caused by administration of chemical substance, Gene No. 1993 [3]: −; Behavior of gene caused by administration of chemical substance, Gene No. 813 [3]: −; Behavior of gene caused by administration of chemical substance, Gene No. 2494 [3]: −; Behavior of gene caused by administration of chemical substance, Gene No. 2546 [3]: −; Behavior of gene caused by administration of chemical substance, Gene No. 3776 [3]: −; Behavior of gene caused by administration of chemical substance, Gene No. 3929 [3]: −; Behavior of gene caused by administration of chemical substance, Gene No. 1119 [3]: −; Behavior of gene caused by administration of chemical substance, Gene No. 6742 [3]: −; Behavior of gene caused by administration of chemical substance, Gene No. 5634 [3]: −; Behavior of gene caused by administration of chemical substance, Gene No. 5726 [3]: −; Mutagenicity by Ames test [4]: M−
ClC(Cl)C(Cl)(Cl)Cl [TS055, Pentachloroethane] | C+ | Cr− | − | − | − | − | − | + | − | − | + | − | + | + | + | + | + | + | + | + | Behavior of gene caused by administration of chemical substance, Gene No. 1562 [3]: +; Behavior of gene caused by administration of chemical substance, Gene No. 1741 [3]: +; Behavior of gene caused by administration of chemical substance, Gene No. 893 [3]: +; Behavior of gene caused by administration of chemical substance, Gene No. 6026 [3]: +; Behavior of gene caused by administration of chemical substance, Gene No. 154 [3]: +; Behavior of gene caused by administration of chemical substance, Gene No. 1993 [3]: +; Behavior of gene caused by administration of chemical substance, Gene No. 813 [3]: +; Behavior of gene caused by administration of chemical substance, Gene No. 2494 [3]: +; Behavior of gene caused by administration of chemical substance, Gene No. 2546 [3]: +; Behavior of gene caused by administration of chemical substance, Gene No. 3776 [3]: +; Behavior of gene caused by administration of chemical substance, Gene No. 3929 [3]: +; Behavior of gene caused by administration of chemical substance, Gene No. 1119 [3]: +; Behavior of gene caused by administration of chemical substance, Gene No. 6742 [3]: +; Behavior of gene caused by administration of chemical substance, Gene No. 5634 [3]: +; Behavior of gene caused by administration of chemical substance, Gene No. 5726 [3]: +; Mutagenicity by Ames test [4]: M−
Clc1ccc(Cl)cc1 [TS026, 1,4-Dichlorobenzene] | C+ | Cr− | − | − | − | − | − | + | − | − | + | − | − | − | + | − | − | + | − | − | Behavior of gene caused by administration of chemical substance, Gene No. 1562 [3]: −; Behavior of gene caused by administration of chemical substance, Gene No. 1741 [3]: −; Behavior of gene caused by administration of chemical substance, Gene No. 893 [3]: −; Behavior of gene caused by administration of chemical substance, Gene No. 6026 [3]: +; Behavior of gene caused by administration of chemical substance, Gene No. 154 [3]: −; Behavior of gene caused by administration of chemical substance, Gene No. 1993 [3]: −; Behavior of gene caused by administration of chemical substance, Gene No. 813 [3]: −; Behavior of gene caused by administration of chemical substance, Gene No. 2494 [3]: −; Behavior of gene caused by administration of chemical substance, Gene No. 2546 [3]: −; Behavior of gene caused by administration of chemical substance, Gene No. 3776 [3]: −; Behavior of gene caused by administration of chemical substance, Gene No. 3929 [3]: −; Behavior of gene caused by administration of chemical substance, Gene No. 1119 [3]: −; Behavior of gene caused by administration of chemical substance, Gene No. 6742 [3]: −; Behavior of gene caused by administration of chemical substance, Gene No. 5634 [3]: −; Behavior of gene caused by administration of chemical substance, Gene No. 5726 [3]: +; Mutagenicity by Ames test [4]: M−
